Converted amounts (≈) assume the structure as drawn. Where two headings read alike, the source gives them in different places.
What was measured:
[1] = data known from the literature, cited from earlier work
[2] = Solubility evaluation of PEA and SPE in water and ethanol with emulsifiers (tests A-H); assay type: physicochemical; settings: for solubility: thermodynamic from solid; for dissolution behaviour in test H: test H: 50 mg PEA + 50 mg SUC in 95% vol EtOH (about 2.5 g), then 500 mg water, then 50 mg SPE
Method: First of all, an evaluation of the solubility of PEA and SPE in water and ethanol was carried out in the presence of two different concentrations of the two emulsifiers.
In both test C and test D, water was added initially up to 1 ml, then to 2 ml and finally to 5 ml.
In test H, 50 mg of PEA (crushed in the mortar because it was initially in the form of flakes) was placed in a 10 ml test tube and 50 mg of SUC were added.
300 mg of water were then added. At the time of addition, cloudiness was observed, but when heated it returned to being a clear solution again. Another 200 mg of water were then added, and the same behavior was observed. This time, it was necessary to heat for a longer time to obtain a clear solution again.
1) PEA was initially present in the form of flakes. It was reduced in size in the mortar before testing.
2) Emulsifiers were added to PEA before adding solvents.

Structure (SMILES)	solubility in ethanol [1] [g/L]	solubility in water ([1]; in words)	solubility ([2]; ethanol, organic solvent or mixture, test G: 32 mg PEA, EtOH q.s. to 2 g, read-out: solubility of PEA in ethanol) [mg/mL]	solubility of PEA in water ([2]; test B: 50 mg PEA, H2O q.s. to 1 g)	solubility of PEA in water with emulsifier MGE ([2]; test C: PEA/MGE=10:1 w/w, H2O up to 5 ml)	solubility of PEA in water with emulsifier SUC ([2]; test D: PEA/SUC=10:1 w/w, H2O up to 5 ml)	solubility of PEA in water with emulsifier MGE ([2]; test E: PEA/MGE 1:1 w/w)	solubility of PEA in water with emulsifier SUC ([2]; test F: PEA/SUC 1:1 w/w)	dissolution behaviour in test H ([2]; heated)	Hot solubility ([2]; tests C and D, PEA in water with emulsifier 10:1 w/w, heated)	solubility in water [1] [g/L]	solubility ([2]; water, test A: 50 mg SPE, H2O q.s. to 1 g, read-out: solubility of SPE in water) [mg/mL]
CCCCCCCCCCCCCCCC(=O)NCCO [PEA, N-(2-hydroxyethyl)hexadecanamide]	16 (≈ 53.4 mM)	insoluble	16 (≈ 53.4 mM)	insolubility	does not seem to improve the solubility	does not seem to improve the solubility	comparable to test C	appears to increase slightly, but not sufficiently	perfectly clear solution	does not appear to have significant improvements		
NCCCCNCCCN [SPE, N-(3-aminopropyl)butane-1,4-diamine·3HCl]									dissolved immediately		50	50

Reference: patent US20260199263A1, “Composition For The Modified Release Of Biological Polyamines, In Particular Spermidine” (GIULIANI S.P.A., priority 2022, published 2026)
